Experiment [1] has as its system BaF3 (Mouse pro-B-cell line). Briefly: Cellular Proliferation Assay, cell line F. The class given is cell-based. The note with it: BaF3, 72 hours, CelltiterBlue, read-out: Cell Line F antiproliferative IC50. How it is done:
(§1) The assay for determination of the antiproliferative activity of multiple Pim inhibitors in the JAK2-driven cell lines was conducted as follows. Cells were plated out to 96-well plates at an initial density of 10,000 cells/well in 95 pt. Compounds were prepared at […] in DMSO by conducting 3-fold serial dilutions to give a 10-point dosing curve having a high dose of 1000 μM. Aliquots (5 μt) of these dilutions were then transferred to the appropriate wells of the 96-well plates containing cells to yield a final DMSO concentration of 0.5%. The cells were then incubated with compound for 72 hours at 37° C., 5% CO2. CelltiterBlue reagent (Promega, Catalog #: G8080) was then added (20 μL/well) and incubated at 37° C., 5% CO2 for 1-8 hours depending on the cell line being analyzed. The plate was then quantified employing a fluorescence plate reader (Model: Gemini [Molecular Devices]; Settings: 560 nm (Ex)/590 nm (Em) 570 nm (cut-off) [CellTiter Blue Assay].
(§2) The values for each well were then converted to a percent of untreated control (POC). These POC values were then plotted as a function of compound concentration. A 4-parameter curve-fit analysis was performed for each compound dilution and an IC50 value was calculated from this curve.
(§3) Cell lines • A: PC3 (Androgen independent prostate cancer) • B: K562 (Ph+chronic myelogenous leukemia) • C: MV4-11 (Acute myelogenous leukemia) • D: BxPC3 (Pancreatic Cancer) • E: HepG2 (Hepatocellular Carcinoma) • F: BaF3 (Mouse pro-B-cell line) • G: BaF3 TEL-JAK2 (Mouse pro-B-cell transformed with TEL-JAK2 fusion) • H: BaF2 BCR-Ab1 (Mouse pro-B-cell transformed with BCR-Ab1 fusion)

For experiment [2], the system named is PC3 (Androgen independent prostate cancer). Kind of experiment: Cellular Proliferation Assay, cell line A. The note with it: PC3, 72 hours, CelltiterBlue; read-out: Cell Line A antiproliferative IC50. The class given is cell-based. How it is done: as §1, §2, §3
In experiment [3] the target is recombinant rat PIM-3 (Rattus norvegicus (Rat), UniProt O70444). Briefly: PIM-3 Enzyme Assay. As to conditions: read-out: PIM-3 IC50, 30 μM ATP, 0.5 nM PIM-3.
Procedure: The amount of radiolabeled product is then measured by liquid scintillation counting. The final buffer conditions were as follows: 20 mM K^+MOPS, pH 7.4, 10 mM MgCl2, 0.005% Tween-20, 1 mM DTT. […] Incubations were carried out for 60 min at 22° C. and quenched with 75 μL of 200 mM H3PO4, filtered through a Whatman P81 plate and washed (1×200 μL and 5×100 μL ) with 200 mM H3PO4. Liquid scintillation cocktail (50 μL ) was then added per well, and the plate was counted for 30 s/well using a TopCount NXT.
One-μL aliquots of these were then transferred to the assay mixtures above to give a final concentration of DMSO of 2%. […] For each plate, percent of control (POC) values were calculated for each well. IC50's were estimated from the POC's using a standard 4-parameter logistic model. The IC50 is defined as the concentration of inhibitor at which the POC equals 50 for the fitted curve.
The test system of experiment [4] is BaF3 TEL-JAK2 (Mouse pro-B-cell transformed with TEL-JAK2 fusion). Kind of experiment: Cellular Proliferation Assay, cell line G. The class given is cell-based. The note with it: BaF3 TEL-JAK2, 72 hours, CelltiterBlue, read-out: Cell Line G antiproliferative IC50. How it is done:
as §1, §2, §3

Experiment [5] has as its target GST-tagged recombinant full-length human PIM-2 (Homo sapiens (Human), UniProt Q9P1W9). Kind of experiment: PIM-2 Enzyme Assay. The note with it: read-out: PIM-2 IC50.
Experiment [6] concerns the target PIM-1 (Homo sapiens (Human), UniProt P11309). Kind of experiment: PIM-1 Enzyme Assay. The class given is biochemical. An outline of the steps: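 Radiometric kinase assay in 20 mM K+MOPS pH 7.4, 10 mM MgCl2, 0.005% Tween-20, 1 mM DTT, 2% DMSO final; 60 min at 22° C, stopped with H3PO4, product captured on P81 filter and counted by scintillation. IC50 from 4-parameter logistic fit of percent of control.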

For experiment [7], the system named is K562 (Ph+chronic myelogenous leukemia). Briefly: Cellular Proliferation Assay, cell line B. The note with it: Homo sapiens; K562, 72 hours, CelltiterBlue; read-out: Cell Line B antiproliferative IC50. The class given is cell-based. How it is done:
as §1, §2, §3

The test system of experiment [8] is BaF2 BCR-Ab1 (Mouse pro-B-cell transformed with BCR-Ab1 fusion). Kind of experiment: Cellular Proliferation Assay, cell line H. The experiment is classed as cell-based. As to conditions: BaF2 BCR-Ab1, 72 hours, CelltiterBlue, read-out: Cell Line H antiproliferative IC50. How it is done:
as §1, §2, §3

The test system of experiment [9] is HepG2 (Hepatocellular Carcinoma). Kind of experiment: Cellular Proliferation Assay, cell line E. The experiment is classed as cell-based. The note with it: Homo sapiens; HepG2, 72 hours, CelltiterBlue; read-out: Cell Line E antiproliferative IC50. How it is done:
as §1, §2, §3

The test system of experiment [10] is BxPC3 (Pancreatic Cancer). Kind of experiment: Cellular Proliferation Assay, cell line D. The class given is cell-based. The note with it: Homo sapiens, BXPC-3; BxPC3, 72 hours, CelltiterBlue; read-out: Cell Line D antiproliferative IC50. How it is done:
as §1, §2, §3

pIC50: −log10 of the molar value. Where a name gives a salt, the structure may show the parent alone. Read-outs that look alike come from different tables or passages of the source.

Chain of PIM-1 (P11309 whole entry, species assumed): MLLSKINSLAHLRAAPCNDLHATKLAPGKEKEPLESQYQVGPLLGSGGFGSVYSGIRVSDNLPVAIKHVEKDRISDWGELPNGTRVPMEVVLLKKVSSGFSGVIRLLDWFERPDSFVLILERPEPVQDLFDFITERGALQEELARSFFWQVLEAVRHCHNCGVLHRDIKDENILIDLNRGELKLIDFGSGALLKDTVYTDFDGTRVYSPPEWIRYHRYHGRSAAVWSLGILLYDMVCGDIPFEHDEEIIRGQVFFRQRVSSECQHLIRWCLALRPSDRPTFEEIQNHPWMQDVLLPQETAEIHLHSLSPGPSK
Chain of GST-tagged recombinant full-length human PIM-2 (Q9P1W9 whole entry): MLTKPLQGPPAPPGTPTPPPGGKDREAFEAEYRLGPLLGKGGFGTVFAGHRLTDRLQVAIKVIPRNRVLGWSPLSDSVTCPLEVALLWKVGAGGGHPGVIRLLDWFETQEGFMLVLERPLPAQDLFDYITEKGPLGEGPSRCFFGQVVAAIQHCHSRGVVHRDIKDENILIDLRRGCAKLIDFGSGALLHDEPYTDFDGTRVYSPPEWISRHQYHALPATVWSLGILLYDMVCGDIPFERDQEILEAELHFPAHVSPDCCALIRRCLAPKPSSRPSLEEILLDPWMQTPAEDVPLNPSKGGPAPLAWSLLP

As to `c1cc(NC2CCNCC2)c2nc(-c3nnc4ccccn34)ccc2c1` [Example 1, 2-([1,2,4]Triazolo[4,3-a]pyridin-3-yl)-N-(piperidin-4-yl)quinolin-8-amine di-trifloroacetate], the negative logarithm of the IC50 (pIC50) in experiment [1] is over 5.70; in experiment [2] it was over 5.00; in experiment [3] it was 8.36; in [4], over 5.70; in experiment [5] (4 μM ATP, […] PIM-2), 5.96; in experiment [6] (35 μM ATP, 0.25 nM PIM-1), 8.80. The results for the pIC50 in experiment [7] and in experiment [8] were under 5.00 and over 5.00, respectively.

For the molecule `N[C@H]1CC[C@H](Oc2cccc3ccc(-c4nnc5ccccn45)nc23)CC1` [Example 17, (trans)-4-(2-([1,2,4]Triazolo[4,3-a]pyridin-3-yl)quinolin-8-yloxy)cyclohexanamine], the pIC50 was over 5.70 in experiment [1]; over 5.70 in [2]; 8.52 in experiment [3]; over 5.70 in experiment [4]; 6.87 in [5] (4 μM ATP, […] PIM-2); over 5.00 in experiment [9]. Also, the negative logarithm of the IC50 (pIC50) in experiment [7] was over 5.00; in [8] it was over 5.70; in experiment [10] it was over 5.00.

On to `c1cc(OC2CCCNCC2)c2nc(-c3nnc4ccccn34)ccc2c1` (centres unmarked) [Example 52, 2-([1,2,4]triazolo[4,3-a]pyridin-3-yl)-8-(azepan-4-yloxy)quinoline dihydrochloride], for which the negative-log IC50 (pIC50) in experiment [3] (dihydrochloride) was 8.40; in experiment [5] (4 μM ATP, […] PIM-2, dihydrochloride), 6.96; in [6] (35 μM ATP, 0.25 nM PIM-1, dihydrochloride) it was 8.70.

For the molecule `CN(C)C(=O)[C@@H]1C[C@@H](Oc2cccc3ccc(-c4nnc5ccccn45)nc23)CCN1` [Example 54, (2S,4S)-4-(2-([1,2,4]triazolo[4,3-a]pyridin-3-yl)quinolin-8-yloxy)-N,N-dimethylpiperidine-2-carboxamide dihydrochloride], the pIC50 was 6.33 in experiment [3]; 5.00 in [5] (4 μM ATP, […] PIM-2); 6.75 in experiment [6] (35 μM ATP, 0.25 nM PIM-1).

On to `CON(C)C(=O)[C@@H]1C[C@@H](Oc2cccc3ccc(-c4nnc5ccccn45)nc23)CCN1` [Example 55, (2S,4S)-4-(2-([1,2,4]triazolo[4,3-a]pyridin-3-yl)quinolin-8-yloxy)-N-methoxy-N-methylpiperidine-2-carboxamide dihydrochloride], for which the pIC50 is 6.65 in experiment [3]; 5.00 in experiment [5] (4 μM ATP, […] PIM-2); 7.15 in [6] (35 μM ATP, 0.25 nM PIM-1).

On to `OC[C@@H]1C[C@@H](Oc2cccc3ccc(-c4nnc5ccccn45)nc23)CCN1` [Example 56, ((2S,4S)-4-(2-([1,2,4]triazolo[4,3-a]pyridin-3-yl)quinolin-8-yloxy)piperidin-2-yl)methanol dihydrochloride], for which the pIC50 in experiment [3] was 7.62; in experiment [5] (4 μM ATP, […] PIM-2), 6.37; in experiment [6], 8.05.

Turning to `c1cc(OC[C@@H]2CCCN2)c2nc(-c3nnc4ccccn34)ccc2c1` [Example 61, (S)-2-([1,2,4]triazolo[4,3-a]pyridin-3-yl)-8-(pyrrolidin-2-ylmethoxy)quinoline], the pIC50 is 6.14 in [3]; 5.00 in [5] (4 μM ATP, […] PIM-2); 6.88 in experiment [6] (35 μM ATP, 0.25 nM PIM-1).

Regarding `OCC(O)COc1cccc2ccc(-c3nnc4ccccn34)nc12` (centres unmarked) [Example 62, 3-(2-([1,2,4]triazolo[4,3-a]pyridin-3-yl)quinolin-8-yloxy)propane-1,2-diol], the pIC50 in experiment [3] is 6.58; in experiment [5] (4 μM ATP, […] PIM-2) it was 5.76; in experiment [6] (35 μM ATP, 0.25 nM PIM-1), 7.47.

As to `CC(C)(CN)COc1cccc2ccc(-c3nnc4ccc(C5CC5)cn34)nc12` [Example 64, 3-(2-(6-cyclopropyl-[1,2,4]triazolo[4,3-a]pyridin-3-yl)quinolin-8-yloxy)-2,2-dimethylpropan-1-amine dihydrochloride], the negative logarithm of the IC50 (pIC50) in experiment [3] is 8.30; in experiment [5] it was 6.49; in [6] it was 9.19.

`FC1(COc2cccc3ccc(-c4nnc5ccccn45)nc23)CCNCC1` [Example 66, 2-([1,2,4]triazolo[4,3-a]pyridin-3-yl)-8-((4-fluoropiperidin-4-yl)methoxy)quinoline dihydrochloride]: the results for the pIC50 in experiment [3], in experiment [5] and in experiment [6] were 8.52, 7.28 and 9.10, respectively.

With `CC1(COc2cccc3ccc(-c4nnc5ccccn45)nc23)CCNCC1` [Example 67, 2-([1,2,4]triazolo[4,3-a]pyridin-3-yl)-8-((4-methylpiperidin-4-yl)methoxy)quinoline dihydrochloride], the negative logarithm of the IC50 (pIC50) in experiment [3] is 8.52; in [5] (4 μM ATP, […] PIM-2), 7.16; in experiment [6] (35 μM ATP, 0.25 nM PIM-1), 9.02.

Take `CCC1(COc2cccc3ccc(-c4nnc5ccccn45)nc23)CCNCC1` [Example 68, 2-([1,2,4]triazolo[4,3-a]pyridin-3-yl)-8-((4-ethylpiperidin-4-yl)methoxy)quinoline dihydrochloride]: the pIC50 in [3] was 8.00; in experiment [5] (4 μM ATP, […] PIM-2) it was 6.90; in [6] (35 μM ATP, 0.25 nM PIM-1) it was 8.89.

As to `OC1(COc2cccc3ccc(-c4nnc5ccccn45)nc23)CCN(Cc2ccccc2)CC1` [Example 71, 4-((2-([1,2,4]triazolo[4,3-a]pyridin-3-yl)quinolin-8-yloxy)methyl)-1-benzylpiperidin-4-ol], the pIC50 is 6.95 in experiment [3]; 5.00 in experiment [5] (4 μM ATP, […] PIM-2); 7.80 in experiment [6] (35 μM ATP, 0.25 nM PIM-1).

For the molecule `COC1(COc2cccc3ccc(-c4nnc5ccccn45)nc23)CCNCC1` [Example 73, 2-([1,2,4]triazolo[4,3-a]pyridin-3-yl)-8-((4-methoxypiperidin-4-yl)methoxy)quinoline bis(trifluoroacetate)], the pIC50 in [3] was 8.30; in experiment [5] (4 μM ATP, […] PIM-2) it was 7.10; in experiment [6], 9.02.

As for `CC1(COc2cccc3ccc(-c4nnc5ccccn45)nc23)CCN(CCO)CC1` [Example 86, dihydrochloride], the pIC50 was 8.00 in experiment [3]; 6.85 in experiment [5]; 8.52 in [6] (35 μM ATP, 0.25 nM PIM-1).

In the case of `CC(C)(COc1cc(F)cc2ccc(-c3nnc4ccccn34)nc12)[C@@H](O)CO` [Example 112, (R)-4-(2-([1,2,4]triazolo[4,3-a]pyridin-3-yl)-6-fluoroquinolin-8-yloxy)-3,3-dimethylbutane-1,2-diol dihydrochloride], the pIC50 was 8.00 in [3]; 6.52 in [5] (4 μM ATP, […] PIM-2); 8.48 in experiment [6] (35 μM ATP, 0.25 nM PIM-1).

For the origin of these results see patent US8575145B2, “Triazolopyridine compounds as PIM kinase inhibitors” (Array BioPharma Inc., priority 2008, dated 2013).
